# Experimental data published in patent US20090042770A1, “Branched Chain Amino Acid Chelate” (priority 2007, published 2009).
# Assays:
# [1] = Incorporation of leucine products into beverages / aqueous systems (dispersibility, separation, turbidity); format: physicochemical; settings: for ease of dispersion when incorporated into beverages: beverages / aqueous systems
# [2] = pre-hydrolyzed BSA perfused into jejunum of human subjects (Reicht et al. 1997); cited from earlier work
Molecule,"appearance in aqueous solution (separation, turbidity) [1]",ease of dispersion when incorporated into beverages [1],rate of absorption [2] [%]
"CC(C)C[C@H](N)C(=O)O [free leucine, (S)-2-amino-4-methylpentanoic acid, reference compound]",separation phenomenon,difficult to disperse,–
calcium leucinate [chelated leucine product],did not separate or increase turbidity,much more easily dispersed,–
N[C@@H](CSSC[C@H](N)C(=O)O)C(=O)O [cystine],–,–,3
